Source: PMC3145970, “Specific CLK Inhibitors from a Novel Chemotype for Regulation of Alternative Splicing” (Chemistry & Biology, 2011)
Like-named read-outs stand apart in the source and are kept apart here.

Assays:
Test in all cases: Thermal stability shift assay
Format in all cases: binding
DMPK1 = target: T1, DMPK1 (Homo sapiens, UniProt Q09013); conditions: read-out: Tm shift DMPK1
T1 construct: purchased in-house (SGC Oxford thermal shift panel)
T1 sequence (Q09013 1-629): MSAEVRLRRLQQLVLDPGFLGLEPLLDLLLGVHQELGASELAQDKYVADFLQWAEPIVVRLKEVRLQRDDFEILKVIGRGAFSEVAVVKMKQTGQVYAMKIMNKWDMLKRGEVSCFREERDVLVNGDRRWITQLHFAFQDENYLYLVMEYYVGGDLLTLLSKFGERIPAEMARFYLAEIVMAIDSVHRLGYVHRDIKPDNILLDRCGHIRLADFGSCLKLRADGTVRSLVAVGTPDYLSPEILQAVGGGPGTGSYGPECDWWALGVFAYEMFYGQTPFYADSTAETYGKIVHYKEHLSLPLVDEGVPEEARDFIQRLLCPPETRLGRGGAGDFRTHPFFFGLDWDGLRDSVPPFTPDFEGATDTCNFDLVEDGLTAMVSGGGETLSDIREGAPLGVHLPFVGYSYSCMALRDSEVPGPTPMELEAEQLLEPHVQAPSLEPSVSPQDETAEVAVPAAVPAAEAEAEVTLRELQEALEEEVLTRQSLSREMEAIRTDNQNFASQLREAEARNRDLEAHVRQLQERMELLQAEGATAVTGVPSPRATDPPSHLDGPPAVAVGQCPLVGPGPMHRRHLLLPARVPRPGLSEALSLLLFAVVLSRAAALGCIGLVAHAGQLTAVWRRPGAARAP
In short: (§1)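 Thermal denaturation is measured by SyproOrange fluorescence in a real-time PCR machine. Each sample holds 2 μM protein and 10 μM compound in 10 mM HEPES pH 7.5 with 500 mM NaCl.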

LOK = target: T2, LOK (Homo sapiens, UniProt O94804); conditions: read-out: Tm shift LOK
T2 construct: purchased in-house (SGC Oxford thermal shift panel)
In short: as §1

MAP3K5 = target: T3, MAP3K5 (Homo sapiens, UniProt Q99683); conditions: read-out: Tm shift MAP3K5
T3 construct: purchased in-house (SGC Oxford thermal shift panel)
T3 sequence (Q99683 1-1374): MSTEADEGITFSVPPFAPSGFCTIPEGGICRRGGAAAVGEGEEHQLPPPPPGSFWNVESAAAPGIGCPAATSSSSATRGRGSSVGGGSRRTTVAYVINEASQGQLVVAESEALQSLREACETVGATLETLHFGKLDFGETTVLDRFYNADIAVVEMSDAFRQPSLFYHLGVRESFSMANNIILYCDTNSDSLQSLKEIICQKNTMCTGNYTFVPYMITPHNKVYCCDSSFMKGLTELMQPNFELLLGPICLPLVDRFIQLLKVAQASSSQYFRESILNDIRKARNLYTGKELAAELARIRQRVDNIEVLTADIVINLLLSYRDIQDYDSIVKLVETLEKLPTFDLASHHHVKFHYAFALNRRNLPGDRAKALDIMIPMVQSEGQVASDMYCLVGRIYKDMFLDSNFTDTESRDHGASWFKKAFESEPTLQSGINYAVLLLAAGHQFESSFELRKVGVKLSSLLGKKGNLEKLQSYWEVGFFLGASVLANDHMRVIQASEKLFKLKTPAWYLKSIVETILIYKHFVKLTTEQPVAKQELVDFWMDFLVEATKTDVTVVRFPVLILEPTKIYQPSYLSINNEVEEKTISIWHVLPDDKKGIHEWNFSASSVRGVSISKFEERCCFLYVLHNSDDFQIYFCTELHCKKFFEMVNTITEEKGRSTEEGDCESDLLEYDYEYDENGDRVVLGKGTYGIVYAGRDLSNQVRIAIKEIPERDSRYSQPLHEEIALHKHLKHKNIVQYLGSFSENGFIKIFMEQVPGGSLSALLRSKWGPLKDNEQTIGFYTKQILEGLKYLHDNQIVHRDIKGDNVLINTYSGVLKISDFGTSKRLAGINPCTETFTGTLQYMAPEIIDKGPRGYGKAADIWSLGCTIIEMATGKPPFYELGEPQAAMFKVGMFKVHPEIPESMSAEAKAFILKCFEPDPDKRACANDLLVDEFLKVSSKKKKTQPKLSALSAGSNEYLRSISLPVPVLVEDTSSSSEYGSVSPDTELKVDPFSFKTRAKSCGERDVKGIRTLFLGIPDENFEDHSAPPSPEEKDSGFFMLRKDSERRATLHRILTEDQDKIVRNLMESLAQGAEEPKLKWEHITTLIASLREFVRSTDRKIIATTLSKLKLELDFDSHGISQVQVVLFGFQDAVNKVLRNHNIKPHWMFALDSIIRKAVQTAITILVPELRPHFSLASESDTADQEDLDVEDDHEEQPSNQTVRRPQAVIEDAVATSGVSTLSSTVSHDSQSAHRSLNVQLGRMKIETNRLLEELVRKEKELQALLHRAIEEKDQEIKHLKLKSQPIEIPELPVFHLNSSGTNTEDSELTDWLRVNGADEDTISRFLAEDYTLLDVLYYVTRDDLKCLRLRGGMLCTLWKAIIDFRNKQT
In short: as §1

JAK1 = target: T4, JAK1 (Homo sapiens, UniProt P23458); conditions: read-out: Tm shift JAK1
T4 construct: purchased in-house (SGC Oxford thermal shift panel)
In short: as §1

ALK4 = target: T5, ALK4 (Homo sapiens, UniProt P36896); conditions: read-out: Tm shift ALK4
T5 sequence (P36896 24-505): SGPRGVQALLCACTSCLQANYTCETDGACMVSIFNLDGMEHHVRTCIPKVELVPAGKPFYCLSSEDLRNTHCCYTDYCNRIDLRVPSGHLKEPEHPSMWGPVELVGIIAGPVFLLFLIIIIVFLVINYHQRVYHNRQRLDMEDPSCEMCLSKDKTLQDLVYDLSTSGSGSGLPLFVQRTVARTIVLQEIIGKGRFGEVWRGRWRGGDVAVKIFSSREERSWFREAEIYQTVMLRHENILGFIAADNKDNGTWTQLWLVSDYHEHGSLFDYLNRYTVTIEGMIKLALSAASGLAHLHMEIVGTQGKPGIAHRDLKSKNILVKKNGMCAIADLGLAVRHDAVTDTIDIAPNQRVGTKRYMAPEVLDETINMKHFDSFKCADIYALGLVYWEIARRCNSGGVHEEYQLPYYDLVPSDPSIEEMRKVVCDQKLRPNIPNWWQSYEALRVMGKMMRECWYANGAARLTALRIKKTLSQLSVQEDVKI
In short: as §1

DAPK3 = target: T6, DAPK3 (Homo sapiens, UniProt O43293); conditions: read-out: Tm shift DAPK3
T6 construct: purchased in-house (SGC Oxford thermal shift panel)
In short: as §1

YSK1 = YSK1 (Homo sapiens, UniProt O00506); conditions: read-out: Tm shift YSK1
In short: as §1

YSK1, sequence (O00506 whole entry): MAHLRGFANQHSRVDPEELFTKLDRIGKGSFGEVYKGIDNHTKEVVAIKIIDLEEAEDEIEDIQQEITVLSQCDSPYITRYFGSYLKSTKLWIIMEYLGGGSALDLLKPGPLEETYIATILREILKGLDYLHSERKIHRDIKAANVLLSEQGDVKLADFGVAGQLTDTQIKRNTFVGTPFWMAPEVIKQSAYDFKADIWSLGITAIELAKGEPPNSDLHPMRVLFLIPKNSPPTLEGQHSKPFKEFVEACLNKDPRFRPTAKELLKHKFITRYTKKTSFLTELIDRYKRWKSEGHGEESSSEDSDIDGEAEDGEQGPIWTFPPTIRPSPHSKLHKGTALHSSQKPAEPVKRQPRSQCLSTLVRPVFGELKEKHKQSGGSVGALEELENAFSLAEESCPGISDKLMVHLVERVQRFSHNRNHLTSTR
T6 sequence (O43293 whole entry): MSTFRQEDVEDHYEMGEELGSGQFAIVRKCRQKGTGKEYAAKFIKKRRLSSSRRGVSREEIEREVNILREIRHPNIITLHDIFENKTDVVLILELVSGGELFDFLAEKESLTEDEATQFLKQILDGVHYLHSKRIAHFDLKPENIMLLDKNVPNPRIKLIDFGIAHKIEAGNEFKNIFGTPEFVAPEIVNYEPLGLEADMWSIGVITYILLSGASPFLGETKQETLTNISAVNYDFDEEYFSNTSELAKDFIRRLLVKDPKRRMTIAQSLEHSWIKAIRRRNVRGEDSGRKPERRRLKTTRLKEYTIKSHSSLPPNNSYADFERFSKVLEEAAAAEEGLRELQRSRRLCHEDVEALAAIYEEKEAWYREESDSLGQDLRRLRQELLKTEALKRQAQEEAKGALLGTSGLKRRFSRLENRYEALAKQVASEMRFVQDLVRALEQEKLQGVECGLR
T2 sequence (O94804 whole entry): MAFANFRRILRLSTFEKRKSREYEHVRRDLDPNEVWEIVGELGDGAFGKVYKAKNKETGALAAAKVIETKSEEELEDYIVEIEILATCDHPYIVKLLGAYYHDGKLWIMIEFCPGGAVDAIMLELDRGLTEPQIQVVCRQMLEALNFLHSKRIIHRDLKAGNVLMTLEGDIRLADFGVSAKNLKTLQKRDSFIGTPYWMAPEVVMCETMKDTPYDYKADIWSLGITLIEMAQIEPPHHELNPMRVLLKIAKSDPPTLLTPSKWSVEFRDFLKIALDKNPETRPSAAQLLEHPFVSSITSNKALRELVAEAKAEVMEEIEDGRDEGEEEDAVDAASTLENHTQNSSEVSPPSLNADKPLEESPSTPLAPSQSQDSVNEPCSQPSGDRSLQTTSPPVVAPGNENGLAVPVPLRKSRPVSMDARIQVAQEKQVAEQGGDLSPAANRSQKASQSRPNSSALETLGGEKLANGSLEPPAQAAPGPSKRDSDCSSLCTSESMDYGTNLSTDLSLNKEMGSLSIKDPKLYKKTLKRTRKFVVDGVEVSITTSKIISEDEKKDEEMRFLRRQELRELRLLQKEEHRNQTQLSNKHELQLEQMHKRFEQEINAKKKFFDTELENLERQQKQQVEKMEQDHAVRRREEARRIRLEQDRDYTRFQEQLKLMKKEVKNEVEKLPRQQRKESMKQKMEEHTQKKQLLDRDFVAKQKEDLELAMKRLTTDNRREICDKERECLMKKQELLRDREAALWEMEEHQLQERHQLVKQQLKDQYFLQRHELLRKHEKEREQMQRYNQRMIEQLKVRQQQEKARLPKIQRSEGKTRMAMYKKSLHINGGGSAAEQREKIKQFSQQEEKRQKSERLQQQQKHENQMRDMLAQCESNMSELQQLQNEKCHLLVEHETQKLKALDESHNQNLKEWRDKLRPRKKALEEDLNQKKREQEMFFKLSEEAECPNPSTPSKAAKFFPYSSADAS
T4 sequence (P23458 whole entry): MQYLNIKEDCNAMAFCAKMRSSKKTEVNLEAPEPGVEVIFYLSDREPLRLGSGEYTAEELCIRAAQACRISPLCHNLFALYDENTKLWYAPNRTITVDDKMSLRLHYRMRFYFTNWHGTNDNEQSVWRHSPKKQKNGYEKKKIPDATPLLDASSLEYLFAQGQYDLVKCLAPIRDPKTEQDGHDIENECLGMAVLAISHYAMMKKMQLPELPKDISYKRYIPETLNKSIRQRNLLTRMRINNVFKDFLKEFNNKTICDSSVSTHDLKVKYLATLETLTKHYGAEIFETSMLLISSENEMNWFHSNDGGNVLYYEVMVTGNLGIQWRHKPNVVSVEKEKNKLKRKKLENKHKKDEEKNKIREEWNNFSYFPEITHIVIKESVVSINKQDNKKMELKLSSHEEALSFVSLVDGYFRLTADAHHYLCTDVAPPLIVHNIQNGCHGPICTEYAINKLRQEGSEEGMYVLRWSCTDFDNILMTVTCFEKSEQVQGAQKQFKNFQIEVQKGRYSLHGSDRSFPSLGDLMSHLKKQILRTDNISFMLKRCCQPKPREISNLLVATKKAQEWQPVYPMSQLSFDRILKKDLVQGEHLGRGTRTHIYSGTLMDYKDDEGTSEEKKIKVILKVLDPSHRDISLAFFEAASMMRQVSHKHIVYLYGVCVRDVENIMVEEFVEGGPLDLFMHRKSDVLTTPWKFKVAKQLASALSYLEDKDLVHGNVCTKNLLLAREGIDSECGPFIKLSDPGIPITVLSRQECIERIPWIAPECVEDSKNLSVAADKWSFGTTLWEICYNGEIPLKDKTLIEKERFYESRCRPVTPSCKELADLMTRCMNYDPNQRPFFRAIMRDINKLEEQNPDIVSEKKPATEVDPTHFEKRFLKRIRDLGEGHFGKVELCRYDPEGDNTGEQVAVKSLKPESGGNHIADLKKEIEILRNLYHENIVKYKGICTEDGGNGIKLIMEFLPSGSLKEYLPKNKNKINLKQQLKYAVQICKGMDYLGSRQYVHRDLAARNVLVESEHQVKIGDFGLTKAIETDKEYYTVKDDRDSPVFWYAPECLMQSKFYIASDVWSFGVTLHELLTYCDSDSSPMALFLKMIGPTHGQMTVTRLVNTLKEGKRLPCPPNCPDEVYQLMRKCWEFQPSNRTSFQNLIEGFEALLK

| ΔTm at 10 µM (DMPK1; inhibitor 10 μM) | ΔTm at 10 µM (LOK; inhibitor 10 μM) | ΔTm at 10 µM (MAP3K5; inhibitor 10 μM) | ΔTm at 10 µM (JAK1; inhibitor 10 μM) | ΔTm at 10 µM (ALK4; inhibitor 10 μM) | ΔTm at 10 µM (DAPK3; inhibitor 10 μM) | ΔTm at 10 µM (YSK1; inhibitor 10 μM) | Structure (SMILES) | ΔTm at 10 µM (DMPK1) | ΔTm at 10 µM (LOK) | ΔTm at 10 µM (MAP3K5) | ΔTm at 10 µM (JAK1) | ΔTm at 10 µM (ALK4) | ΔTm at 10 µM (DAPK3) | ΔTm at 10 µM (YSK1) |
| --- | --- | --- | --- | --- | --- | --- | --- | --- | --- | --- | --- | --- | --- | --- |
| – | – | – | – | – | – | – | CCOC(=O)c1c(C(C#N)=CN)c2ccc(Cl)c(Cl)c2n1C (mixture of isomers) [KH-CB20, (E/Z)-Ethyl 3-(2-Amino-1-Cyanovinyl)-6,7-Dichloro-1-Methyl-1H-Indole-2-Carboxylate] | -0.4 °C | 3 °C | 0.5 °C | 1 °C | 1.4 °C | 2.2 °C | 0.1 °C |
| -0.3 °C | -1.1 °C | 0.2 °C | 0.2 °C | 4 °C | 0.3 °C | 0.6 °C | CCOC(=O)c1c(C(C#N)=CN(C)C)c2ccc(Cl)c(Cl)c2n1C (mixture of isomers) [compound 2, (E/Z)-Ethyl 6,7-Dichloro-3-[1-Cyano-2-(Dimethylamino)Vinyl]-1-Methyl-1H-Indole-2-Carboxylate] | – | – | – | – | – | – | – |
| – | – | – | – | – | – | – | CCOC(=O)c1c(/C(C#N)=C\N)c2ccc(Cl)c(Cl)c2n1C [KH-CB19, (E)-Ethyl 3-(2-Amino-1-Cyanovinyl)-6,7-Dichloro-1-Methyl-1H-Indole-2-Carboxylate] | -0.4 °C | -0.8 °C | 0.8 °C | 0.7 °C | 1.2 °C | 2.2 °C | -0.1 °C |
| 0.9 °C | -0.7 °C | 0.8 °C | 0.9 °C | 0.9 °C | 2 °C | 0.2 °C | Cn1c2c(Cl)c(Cl)ccc2c2c(C#N)c[nH]c(=O)c21 [compound 3, 7,8-Dichloro-9-Methyl-1-Oxo-2,9-Dihydro-1H-Pyrido[3,4-b]Indole-4-Carbonitrile] | – | – | – | – | – | – | – |

| Structure (SMILES) | ΔTm at 10 µM (DMPK1; inhibitor 10 μM) | ΔTm at 10 µM (LOK; inhibitor 10 μM) | ΔTm at 10 µM (MAP3K5; inhibitor 10 μM) | ΔTm at 10 µM (JAK1; inhibitor 10 μM) | ΔTm at 10 µM (ALK4; inhibitor 10 μM) | ΔTm at 10 µM (DAPK3; inhibitor 10 μM) | ΔTm at 10 µM (YSK1; inhibitor 10 μM) | ΔTm at 10 µM (DMPK1) | ΔTm at 10 µM (LOK) | ΔTm at 10 µM (MAP3K5) | ΔTm at 10 µM (JAK1) | ΔTm at 10 µM (ALK4) | ΔTm at 10 µM (DAPK3) | ΔTm at 10 µM (YSK1) |
| --- | --- | --- | --- | --- | --- | --- | --- | --- | --- | --- | --- | --- | --- | --- |
| NC1=NC(=O)/C(=C2\CCNC(=O)c3[nH]c(Br)cc32)N1 [Hymenialdisine, hymenialdisine, reference compound] | 0.2 °C | 4.2 °C | 8.7 °C | 0.3 °C | 4.9 °C | 7.6 °C | 1.7 °C | – | – | – | – | – | – | – |
